Assay results reported in patent US12599572B2, “Solid lipid nanoparticles of curcumin” (priority 2018, dated 2026).
In brackets after ≈: the same amount, converted by molar mass. Like-named read-outs stand apart in the source and are kept apart here.

Tests used:
[1] = Pharmacokinetic studies, single oral dose; type: in vivo, Wistar Rats; conditions: rats, 100 mg/kg single oral dose
Procedure: For in vivo pharmacokinetic studies, female Wistar Rats were used. The animals were divided into 3 groups (n=3). […] The blood samples (0.5 ml) were withdrawn from retro-orbital plexus at different time intervals and collected into microcentrifuge tubes containing EDTA. Plasma was separated by centrifuging the blood samples at 10000 rpm for 6 min at 5° C. After centrifugation, the plasma obtained was stored at −20° C. until analysis. […] To 50 μl of plasma samples in an eppendorf tube, 150 μl of methanol and 300 μl of acetonitrile:water (1:1) was added. The sample was vortexed for 5 min and centrifuged at 15,000 rpm to separate precipitated proteins. Supernatant was transferred to suitably labelled tubes. The sample was filtered through 0.2 μm syringe filter and was used for analysis using the developed Ultra high pressure liquid chromatography (UPLC) method. The pharmacokinetic parameters were calculated using non-compartmental model. The area under the concentration-time curve from time zero to time t (AUCo-t) was calculated using the trapezoidal method. Peak concentration (Cmax) and the time at which the peak concentration is achieved (Tmax), were obtained directly from the individual concentration-time profiles. All values were corrected for the spiked concentration. The area under the concentration-time curve from time zero to infinity was calculated by: AUCo-x=AUCo-+Ct/Ke, where Ct is the drug concentration observed at the last time and Ke is the apparent elimination rate constant obtained from the terminal slope of the individual concentration-time curves after logarithmic transformation of the concentration values and application of linear regression. AUMC was determined by plotting concentration*time (ct) versus time (t) using trapezoidal method. Mean residence time (MRT) was calculated by: MRT=AUMC/AUC.

[2] = Degradation studies (hydrolytic stability at pH 1.2, 6.8, 7.4 and 9); type: physicochemical; conditions: for k value: zero order
Procedure: It was further diluted to 5 μg/ml with respective buffers (pH 1.2, pH 6.8, pH 7.4 and pH 9). In case of C-SLNaq, Iml dispersion was placed in a dialysis bag and dialyzed against methanol (100 ml) at room temperature for 45 minutes to remove unentrapped drug. […] The stock solution and sample solution were prepared in amber coloured volumetric flasks to avoid photodegradation. The solutions were prepared and incubated at 37° C. […] […] Presence of water quenches the fluorescent intensity of curcumin. The samples were thus analysed subsequently using the UV/Visible spectrophotometer at λmax425 nm. The absorbance read at zero time was considered as 100% and change in concentration and % degradation was determined accordingly.
The graph between concentration versus time, log concentration versus time and percent drug remaining versus time were plotted.

[3] = Photostability study (ICH); type: physicochemical
Procedure: The above samples were placed in photostability chamber and exposed to light providing illumination of not less than 1.2 million lux hours for 10 days. After 10 days the containers were withdrawn and […] evaluated for total drug content, entrapment efficiency, particle size, zeta-potential and PDI. Samples of free drug, […] and C-SLNbent were analysed for total drug content.

[4] = combined with piperine, rats (Shoba et al., 1998); cited from earlier work
[5] = In-vitro release (Franz-diffusion cells, dialysis membrane); type: physicochemical
Procedure: Jacketed franz-diffusion cells were used for the determination of in-vitro release of free curcumin and curcumin from C-SLNaq. These cells consist of the donor and the receptor chamber between which dialysis membrane is positioned. The dialysis membrane was soaked in double distilled water for 12 h prior to use. The whole system was water jacketed and thermostatically controlled by an external circulating water bath at 37° C.±1° C. The used receptor media consisted of 50% ethanol in distilled water. […] The receptor media was stirred throughout the experiment, using a magnetic stirrer. Iml aliquots were withdrawn regularly from the receptor compartment at various times starting at 30 min and replaced by an equal volume of fresh receptor medium. The samples were analysed, immediately, spectrophotometrically at 425 nm.

[6] = Solubility of curcumin; type: physicochemical

AUC(0-inf) ([1]; female, Wistar, rat, plasma): 2.69 ng·h/mL | Cmax ([1]; female, Wistar, rat, plasma): 1.79 ng/mL | MRT ([1]; female, Wistar, rat, plasma): 2 h | Tmax ([1]; female, Wistar, rat, plasma): 2 h | AUMC0-∞ [1]: 5.38 h^2*ng/ml | half-life at 5 μg/ml ([2]; alkaline borate buffer pH 9, pH 9): 0.669 h | half-life at 5 μg/ml ([2]; buffer pH 1.2, pH 1.2): 17.3 h | order of degradation kinetics ([2]; investigated pH conditions (C-SLN: except pH 9)): zero order | Percentage remaining ([2]; pH 1.2, 0 h): 100.00 ± 0.06% | Percentage remaining ([2]; pH 1.2, 0.08 h): 89.23 ± 0.02% | Percentage remaining ([2]; pH 1.2, 0.25 h): 88.29 ± 0.01% | Percentage remaining ([2]; pH 1.2, 0.5 h): 85.60 ± 0.01% | Percentage remaining ([2]; pH 1.2, 1 h): 87.24 ± 0.001% | Percentage remaining ([2]; pH 1.2, 2 h): 72.37 ± 0.02% | Percentage remaining ([2]; pH 1.2, 3 h): 68.74 ± 0.03% | Percentage remaining ([2]; pH 1.2, 4 h): 62.76 ± 0.01% | Percentage remaining ([2]; pH 1.2, 5 h): 61.01 ± 0.01% | Percentage remaining ([2]; pH 1.2, 6 h): 53.40 ± 0.02% | Percentage remaining ([2]; pH 1.2, 24 h): 15.76 ± 0.01% | degradation ([2]; pH 1.2, 24 h): ≤ 85% | degradation ([2]; pH 1.2, upto 6 h): ≤ 50% | degradation ([2]; pH 1.2 medium, 4h): ~40% | Percentage remaining ([2]; pH 6.8, 0 h): 100.00 ± 0.04% | Percentage remaining ([2]; pH 6.8, 0.08 h): 94.93 ± 0.06% | Percentage remaining ([2]; pH 6.8, 0.25 h): 87.63 ± 0.04% | Percentage remaining ([2]; pH 6.8, 0.5 h): 81.95 ± 0.08% | Percentage remaining ([2]; pH 6.8, 1 h): 79.72 ± 0.06% | Percentage remaining ([2]; pH 6.8, 2 h): 66.73 ± 0.05% | Percentage remaining ([2]; pH 6.8, 3 h): 62.68 ± 0.07% | Percentage remaining ([2]; pH 6.8, 4 h): 57.81 ± 0.05% | Percentage remaining ([2]; pH 6.8, 5 h): 43.61 ± 0.08% | Percentage remaining ([2]; pH 6.8, 6 h): 23.12 ± 0.04% | degradation ([2]; pH 6.8, 6 h): 77% | Percentage remaining ([2]; pH 6.8, 24 h): 11.36 ± 0.04% | degradation ([2]; pH 6.8, 24 h): 89% | Percentage remaining ([2]; pH 7.4, 0 h): 100.0 ± 0.060% | Percentage remaining ([2]; pH 7.4, 0.08 h): 96.33 ± 0.02% | Percentage remaining ([2]; pH 7.4, 0.25 h): 93.81 ± 0.04% | Percentage remaining ([2]; pH 7.4, 0.5 h): 84.17 ± 0.04% | Percentage remaining ([2]; pH 7.4, 1 h): 75.92 ± 0.04% | Percentage remaining ([2]; pH 7.4, 2 h): 67.20 ± 0.03% | Percentage remaining ([2]; pH 7.4, 3 h): 61.01 ± 0.03% | Percentage remaining ([2]; pH 7.4, 4 h): 49.08 ± 0.04% | Percentage remaining ([2]; pH 7.4, 5 h): 40.60 ± 0.03% | Percentage remaining ([2]; pH 7.4, 6 h): 24.31 ± 0.01% | degradation ([2]; pH 7.4, 6 h): 75% | Percentage remaining ([2]; pH 7.4, 24 h): 13.99 ± 0.01% | degradation ([2]; pH 7.4, 24 h): 77% | Percentage remaining ([2]; pH 9, 0 h): 100.00 ± 0.004% | Percentage remaining ([2]; pH 9, 0.08 h): 82.59 ± 0.009% | Percentage remaining ([2]; pH 9, 0.25 h): 61.43 ± 0.004% | Percentage remaining ([2]; pH 9, 0.5 h): 32.76 ± 0.006% | Percentage remaining ([2]; pH 9, 1 h): 20.48 ± 0.001% | Percentage remaining ([2]; pH 9, 2 h): 15.70 ± 0.002% | Percentage remaining ([2]; pH 9, 3 h): 9.90 ± 0.003% | Percentage remaining ([2]; pH 9, 4 h): 2.39 ± 0.004% | degradation ([2]; pH 9, 4 h): approximately 98% | half-life at 5 μg/ml ([2]; phosphate buffer pH 6.8, pH 6.8): 1.32 h | half-life at 5 μg/ml ([2]; phosphate buffer pH 7.4, pH 7.4): 9.4 h | k value ([2]; pH 1.2): 0.039 | k value ([2]; pH 6.8): 0.52 | k value ([2]; pH 7.4): 0.073 | k value ([2]; pH 9): 0.95 | TDC % ([3]; Amber glass, 0 day): 100.00 ± 0% | TDC % ([3]; Amber glass, 10 days): 78.31 ± 7.1% | TDC % ([3]; Transparent, 0 day): 100.00 ± 0% | TDC % ([3]; Transparent, 10 days): 65.51 ± 7.5% | degradation ([3]; amber coloured containers, 10 days): 21.7% | degradation ([3]; transparent containers, 10 days): 35% | order of release [5]: first order | release model followed [5]: Hixon model | time over which drug was released ([5]; receptor 50% ethanol, 37° C.): ≤ 8 h | solubility ([6]; 50% (v/v) ethanol, aqueous with cosolvent or surfactant or cyclodextrin): 693 µg/mL (≈ 1880 µM) | solubility ([6]; water, read-out: aqueous solubility): 0.6 µg/mL (≈ 1.63 µM) | solubility ([6]; water, room temperature, read-out: Solubility in water): 0.003 ± 0.002 µg/mL (≈ 0.00814 µM)
SMILES: COc1cc(C=CC(=O)CC(=O)C=Cc2ccc(O)c(OC)c2)ccc1O [Free curcumin, 1,7-bis(4-hydroxy-3-methoxyphenyl)-1,6-hepadiene-3,5-dione]
increase in the oral bioavailability [4]: 154%
